Literature values in patent US20250163027A1, “GPR88-RECEPTOR-AGONIST” (Boehringer Ingelheim International GmbH, priority 2023, published 2025).

Target: hGPR88 receptor (Homo sapiens, UniProt Q9GZN0)
Conditions: value marked * : cAMP assay, not BRET

Chain of hGPR88 receptor (Q9GZN0 whole entry): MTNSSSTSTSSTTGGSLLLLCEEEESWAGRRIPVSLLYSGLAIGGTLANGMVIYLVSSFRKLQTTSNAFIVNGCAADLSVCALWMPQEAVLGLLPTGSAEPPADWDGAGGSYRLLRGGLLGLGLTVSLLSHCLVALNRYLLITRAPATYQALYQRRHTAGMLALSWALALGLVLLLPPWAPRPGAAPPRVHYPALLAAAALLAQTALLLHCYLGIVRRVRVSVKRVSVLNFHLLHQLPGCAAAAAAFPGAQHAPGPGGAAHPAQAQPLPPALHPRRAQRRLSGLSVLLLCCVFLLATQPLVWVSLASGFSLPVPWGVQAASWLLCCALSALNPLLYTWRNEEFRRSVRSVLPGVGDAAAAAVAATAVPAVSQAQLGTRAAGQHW

EC50: > 5 µM
Structure (SMILES): COCc1ccc(-c2ccc(N(CC(C)(C)O)C(=O)C3CC3c3ccccn3)cc2)cc1 (stereo not shown) [Ex 141 in WO2022/129933]
